{"source": "patent US20230226065A1", "about": "“ANTI-INFLAMMATORY COMPOSITIONS, METHODS AND USES THEREOF” (COMVITA LIMITED, priority 2020, published 2023)", "key": {"recombinant MMP-9 enzyme": {"molecular_target": "T1, recombinant MMP-9 enzyme (Homo sapiens, UniProt P14780)", "T1 construct": "purchased Abcam ab139449", "T1 sequence (P14780 94-707)": "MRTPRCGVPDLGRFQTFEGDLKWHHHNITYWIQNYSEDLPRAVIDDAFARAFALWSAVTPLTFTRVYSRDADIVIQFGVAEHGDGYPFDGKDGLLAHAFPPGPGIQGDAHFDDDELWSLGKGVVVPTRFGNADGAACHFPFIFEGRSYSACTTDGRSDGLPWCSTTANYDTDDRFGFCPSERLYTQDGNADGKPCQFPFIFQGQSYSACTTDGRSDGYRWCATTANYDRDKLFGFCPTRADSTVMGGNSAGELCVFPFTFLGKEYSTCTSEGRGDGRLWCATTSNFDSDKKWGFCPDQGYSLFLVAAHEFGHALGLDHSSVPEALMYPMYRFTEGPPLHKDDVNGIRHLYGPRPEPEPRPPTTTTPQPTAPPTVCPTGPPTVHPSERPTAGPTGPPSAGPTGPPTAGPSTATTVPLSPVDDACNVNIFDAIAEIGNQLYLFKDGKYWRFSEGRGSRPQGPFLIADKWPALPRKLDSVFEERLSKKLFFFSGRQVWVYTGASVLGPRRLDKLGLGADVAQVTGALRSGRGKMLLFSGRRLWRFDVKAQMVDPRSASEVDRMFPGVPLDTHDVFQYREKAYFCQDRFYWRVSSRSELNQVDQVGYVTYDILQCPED", "assay": "MMP-9 inhibitor screening assay (fluorometric)", "format": "biochemical", "conditions": "40 μg/ml; no significant difference to NNGH control", "experimental": "The MMP-9 inhibitor screening assay (fluorometric) kits were purchased from Abcam (Melbourne, Australia). The fluorometric kit contains the recombinant MMP-9 enzyme, MMP inhibitor NNGH (N-isobutyl-N-[4-methoxyphenylsulfonyl]glycyl hydroxamic acid), MMP fluorogenic substrate solubilised in DMSO, the fluorometric assay buffer and 96-well clear microplate.\nInhibitory activity on MMP-9 was assessed using the commercial MMP-9 inhibitor screening assay kit. MMP-9 activity was expressed as a change in fluorescence intensity measured using SpectraMax iD3 multi-mode microplate reader (Molecular Devices, San Jose, USA).\nThe assay employs a FRET-tagged (fluorescence resonance energy transfer) substrate, which can be hydrolysed by MMP-9 at a specific site (Abcam, 2018). The cleavage of the FRET substrate releases the quenched fluorescent Mca (7-methoxycoumarin-4-yl)-acetyl group (Abcam, 2018). The kit employs a quenched fluorogenic substrate Mca-Pro-Leu-Gly-Leu-Dpa-Ala-Arg-NH2, where the Mca fluorescence is quenched by Dpa until cleavage by MMPs. The amount of fluorescent product yielded by MMP-9 can be detected fluorometrically and it is proportional to the enzyme activity. Fluorescence were measured at ex320 nm-em395 nm to minimise fluorescence interference from 3,6,7-trimethyllumazine at ex330 nm-em470 nm. […]"}, "[1]": {"assay": "Simulated gastrointestinal digestion (SGF then SIF), HPLC retention of 3,6,7-trimethyllumazine", "format": "in vitro ADME", "conditions": "for remaining amount of 3,6,7-trimethyllumazine: pure compound", "experimental": "The simulated gastrointestinal digestion was carried out using a static model. The simulated gastric fluid (SGF) and the simulated intestinal fluid (SIF) were prepared in accordance with a global consensus protocol (Minekus et al 2014). The SGF has a pH 3 to mimic the fed-state of the stomach. When mixed with Manuka honey (or a honey solution), the final mixture contains 2000 U/mL of pepsin. The SIF has pH 7 to mimic the fed-state of the small intestine, containing 2 mg/mL of pancreatin (8×USP, or based on a protease activity of 200 U/mL) and 20 mM of porcine bile extract before use.\nIn the simulated gastric digestion, 2 g of Manuka honey was incubated in 2 mL of SGF at 37° C. under 95 rpm shaking for a period of 2 h (triplicates). At selected time points (0, 30, 60 and 120 min), a predetermined volume (0.1 mL) of the mixture was withdrawn for 3,6,7-trimethyllumazine analysis. The solution for analysis was kept on ice with an addition of 0.1 mL SIF (pH 7) to stop pepsin activity. As a control group, a pure 3,6,7-trimethyllumazine solution was treated in the same way for comparative purposes.\nFollowing the 2 h gastric digestion, the resulting solution was mixed with SIF (pH 7) at a volume ratio of 1:1, to have a final mixture that contains 1 mg/mL of pancreatin and 10 mM of porcine bile extract. This mixture was incubated at 37° C. under 95 rpm shaking for 4 h (triplicates). At selected time points (0, 60, 120 and 240 min), a predetermined volume (0.1 mL) of the mixture was withdrawn for 3,6,7-trimethyllumazine concentration analysis. The pancreatin activity in the withdrawn solution was quenched by adding 5 mmol/L Pefabloc® (Egger et al 2019).\nThe gastric and intestinal digesta for 3,6,7-trimethyllumazine analysis was treated to remove insoluble fractions (e.g. pancreatin) before HPLC analysis. In brief, all samples were diluted with 0.1% formic acid and then centrifuged at 14,000 rpm for 10 min. Supernatant was taken for analysis. The amount of 3,6,7-trimethyllumazine at different time points was analysed using a reverse-phase HPLC system, which has been previously used to analyse 3,6,7-trimethyllumazine and leptosperin as reported in the literature (Bin Lin et al 2017). In brief, the samples were diluted 5 times in 0.1% v/v formic acid. A Hypersil GOLD column (150×2.1 mm, […]) was used as the stationary phase (25° C.), and the mobile phase will consist of 0.1% formic acid (phase A), and 80:20 acetonitrile: 0.1% formic acid (phase B). […] The signal of 3,6,7-trimethyllumazine was detected at 320 nm."}}}
{"molecule": "Cc1nc2[nH]c(=O)n(C)c(=O)c2nc1C", "note": "[3,6,7-trimethyllumazine]", "values": [{"measurement": "inhibition of MMP-9 activity", "setting": "recombinant MMP-9 enzyme", "result": "almost completely inhibited"}, {"measurement": "degradation during gastrointestinal digestion", "setting": "[1]; 50% (w/w) Manuka honey solutions or pure compound directly exposed to digestive media", "result": "No significant degradation"}, {"measurement": "initial amount recovered in the digesta", "setting": "[1]; from four Manuka honey samples, end of 2 h gastric plus 4 h intestinal digestion", "result": "~100", "unit": "%"}, {"measurement": "remaining amount of 3,6,7-trimethyllumazine", "setting": "[1]; SGF, 0 h, mean ± SD, n=3", "result": "682 ± 90", "unit": "ng/mL"}, {"measurement": "remaining amount of 3,6,7-trimethyllumazine", "setting": "[1]; SGF, 0.5 h", "result": "703 ± 57", "unit": "ng/mL"}, {"measurement": "remaining amount of 3,6,7-trimethyllumazine", "setting": "[1]; SGF, 1 h", "result": "728 ± 28", "unit": "ng/mL"}, {"measurement": "remaining amount of 3,6,7-trimethyllumazine", "setting": "[1]; SGF, 2 h", "result": "688 ± 72", "unit": "ng/mL"}, {"measurement": "remaining amount of 3,6,7-trimethyllumazine", "setting": "[1]; SIF, 0 h", "result": "736 ± 6", "unit": "ng/mL"}, {"measurement": "remaining amount of 3,6,7-trimethyllumazine", "setting": "[1]; SIF, 1 h", "result": "740 ± 12", "unit": "ng/mL"}, {"measurement": "remaining amount of 3,6,7-trimethyllumazine", "setting": "[1]; SIF, 2 h", "result": "732 ± 10", "unit": "ng/mL"}, {"measurement": "remaining amount of 3,6,7-trimethyllumazine", "setting": "[1]; SIF, 4 h", "result": "730 ± 3", "unit": "ng/mL"}]}
